Data from ChEMBL document CHEMBL4152254, “Pyridinyl- and pyridazinyl-3,6-diazabicyclo[3.1.1]heptane-anilines: Novel selective ligands with subnanomolar affinity for α4β2 nACh receptors” (Eur J Med Chem, 2018).
Active and inactive are the calls of the source. No cut-off for these calls is given here.

Tests used:
Rattus norvegicus = species on record: Rattus norvegicus; test: Selectivity ratio of Ki for alpha7 nAChR in rat hippocampal membranes to Ki for alpha4beta2 nAChR in rat cortex membranes; type: cell membranes
[1] = target: Neuronal acetylcholine receptor; alpha4/beta2 (Rattus norvegicus, UniProt P09483+P12390); test: Displacement of [3H]epibatidine from alpha4beta2 nAChR in rat cortex membranes; type: cell membranes
[2] = target: Neuronal acetylcholine receptor subunit alpha-7 (Rattus norvegicus, UniProt Q05941); test: Displacement of [125I]alpha-bungarotoxin from alpha7 nAChR in rat hippocampal membranes; type: cell membranes
[3] = target: T1, Neuronal acetylcholine receptor; alpha3/beta4 (Homo sapiens, UniProt P30926+P32297); test: Displacement of [3H]epibatidine from human alpha3beta4 nAChR expressed in HEK293 cell membranes
[4] = Selectivity ratio of Ki for human alpha3beta4 nAChR expressed in HEK293 cell membranes to Ki for alpha4beta2 nAChR in rat cortex membranes; type: cell-based
[5] = target: Neuronal acetylcholine receptor subunit alpha-7 (Homo sapiens) (UniProt P36544); test: Agonist activity at human alpha7 nAChR expressed in rat GH4C1 cells assessed as inward channel current amplitude at 100 uM at -70 mV holding potential by whole cell electrophysiology method; type: cell-based
[6] = target: T2, Neuronal acetylcholine receptor; alpha4/beta2 (Homo sapiens, UniProt P17787+P43681); test: Agonist activity at human alpha4beta2 nAChR expressed in rat GH4C1 cells assessed as inward channel current amplitude at -70 mV holding potential by whole cell electrophysiology method; type: cell-based
[7] = target: T1, Neuronal acetylcholine receptor; alpha3/beta4; test: Agonist activity at human alpha3beta4 nAChR expressed in rat GH4C1 cells assessed as inward channel current amplitude at -70 mV holding potential by whole cell electrophysiology method; type: cell-based
[8] = target: T2, Neuronal acetylcholine receptor; alpha4/beta2; test: Agonist activity at alpha4beta2 nAChR (unknown origin); type: protein-complex assay
[9] = target: T2, Neuronal acetylcholine receptor; alpha4/beta2; test: Agonist activity at human alpha4beta2 nAChR expressed in rat GH4C1 cells assessed as inward channel current amplitude at 100 uM at -70 mV holding potential by whole cell electrophysiology method relative to acetylcholine; type: cell-based
[10] = target: T1, Neuronal acetylcholine receptor; alpha3/beta4; test: Agonist activity at human alpha3beta4 nAChR expressed in rat GH4C1 cells assessed as inward channel current amplitude at 100 uM at -70 mV holding potential by whole cell electrophysiology method relative to acetylcholine; type: cell-based

Chain of Neuronal acetylcholine receptor; alpha4/beta2 (Rattus norvegicus, UniProt P09483+P12390) (P09483 whole entry): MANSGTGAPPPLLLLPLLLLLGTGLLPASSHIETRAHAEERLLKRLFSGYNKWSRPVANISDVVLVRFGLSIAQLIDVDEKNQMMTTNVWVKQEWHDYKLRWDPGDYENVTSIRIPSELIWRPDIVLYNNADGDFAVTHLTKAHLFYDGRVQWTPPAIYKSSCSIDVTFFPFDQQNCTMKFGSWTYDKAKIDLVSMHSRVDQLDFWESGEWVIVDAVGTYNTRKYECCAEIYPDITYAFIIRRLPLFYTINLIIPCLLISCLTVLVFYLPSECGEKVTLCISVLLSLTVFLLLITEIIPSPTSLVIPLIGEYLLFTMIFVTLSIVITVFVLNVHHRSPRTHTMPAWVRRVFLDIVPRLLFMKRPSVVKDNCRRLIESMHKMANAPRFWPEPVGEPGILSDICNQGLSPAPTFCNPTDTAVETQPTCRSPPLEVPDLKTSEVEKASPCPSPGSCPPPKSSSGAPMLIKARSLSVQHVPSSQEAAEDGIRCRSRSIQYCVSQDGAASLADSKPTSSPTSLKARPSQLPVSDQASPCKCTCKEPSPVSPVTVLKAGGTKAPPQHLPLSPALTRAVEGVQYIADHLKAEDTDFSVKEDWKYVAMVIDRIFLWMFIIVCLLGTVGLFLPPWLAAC
Chain of Neuronal acetylcholine receptor; alpha4/beta2 (Rattus norvegicus, UniProt P09483+P12390) (P12390 whole entry): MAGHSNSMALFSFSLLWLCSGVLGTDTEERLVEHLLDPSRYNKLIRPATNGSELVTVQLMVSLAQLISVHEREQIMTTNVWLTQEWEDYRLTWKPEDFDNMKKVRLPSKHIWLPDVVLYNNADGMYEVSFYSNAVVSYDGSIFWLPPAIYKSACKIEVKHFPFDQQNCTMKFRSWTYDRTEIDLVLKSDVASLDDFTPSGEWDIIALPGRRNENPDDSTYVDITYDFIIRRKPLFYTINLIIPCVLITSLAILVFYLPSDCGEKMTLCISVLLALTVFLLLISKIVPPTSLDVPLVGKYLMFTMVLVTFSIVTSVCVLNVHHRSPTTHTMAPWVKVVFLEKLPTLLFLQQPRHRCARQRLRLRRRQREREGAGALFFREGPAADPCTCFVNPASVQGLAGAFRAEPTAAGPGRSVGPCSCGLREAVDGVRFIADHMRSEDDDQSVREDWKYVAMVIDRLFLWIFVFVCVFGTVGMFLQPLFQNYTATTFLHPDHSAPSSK
Chain of Neuronal acetylcholine receptor subunit alpha-7 (Q05941 whole entry): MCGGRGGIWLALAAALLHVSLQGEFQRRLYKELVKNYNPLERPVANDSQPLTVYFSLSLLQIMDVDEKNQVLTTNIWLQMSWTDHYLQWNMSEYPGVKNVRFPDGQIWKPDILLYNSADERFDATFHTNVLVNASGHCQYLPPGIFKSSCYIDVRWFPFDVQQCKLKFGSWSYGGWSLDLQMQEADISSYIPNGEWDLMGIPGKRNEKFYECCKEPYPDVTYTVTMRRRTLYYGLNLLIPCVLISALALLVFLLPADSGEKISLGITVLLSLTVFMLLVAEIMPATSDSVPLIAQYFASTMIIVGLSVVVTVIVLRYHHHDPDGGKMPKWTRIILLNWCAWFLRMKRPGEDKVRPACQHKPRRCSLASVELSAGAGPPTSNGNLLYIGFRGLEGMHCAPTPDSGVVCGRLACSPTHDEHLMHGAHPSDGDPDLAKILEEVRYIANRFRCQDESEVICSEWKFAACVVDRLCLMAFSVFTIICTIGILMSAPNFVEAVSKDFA
T2 sequence (P17787 whole entry): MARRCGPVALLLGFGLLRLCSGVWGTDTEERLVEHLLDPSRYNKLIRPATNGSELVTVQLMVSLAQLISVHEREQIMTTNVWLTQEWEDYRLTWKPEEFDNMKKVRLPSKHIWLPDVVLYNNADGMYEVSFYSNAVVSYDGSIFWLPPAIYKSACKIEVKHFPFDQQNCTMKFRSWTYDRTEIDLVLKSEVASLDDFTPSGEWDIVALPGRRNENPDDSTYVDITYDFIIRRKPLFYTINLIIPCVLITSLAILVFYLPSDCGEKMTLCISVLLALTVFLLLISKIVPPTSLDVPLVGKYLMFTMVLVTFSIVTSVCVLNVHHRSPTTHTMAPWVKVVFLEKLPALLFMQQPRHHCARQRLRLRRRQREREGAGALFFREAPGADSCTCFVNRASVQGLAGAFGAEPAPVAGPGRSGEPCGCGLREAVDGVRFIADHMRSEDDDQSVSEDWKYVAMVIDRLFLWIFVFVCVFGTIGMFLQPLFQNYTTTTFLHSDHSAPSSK
T2 sequence (P43681 whole entry): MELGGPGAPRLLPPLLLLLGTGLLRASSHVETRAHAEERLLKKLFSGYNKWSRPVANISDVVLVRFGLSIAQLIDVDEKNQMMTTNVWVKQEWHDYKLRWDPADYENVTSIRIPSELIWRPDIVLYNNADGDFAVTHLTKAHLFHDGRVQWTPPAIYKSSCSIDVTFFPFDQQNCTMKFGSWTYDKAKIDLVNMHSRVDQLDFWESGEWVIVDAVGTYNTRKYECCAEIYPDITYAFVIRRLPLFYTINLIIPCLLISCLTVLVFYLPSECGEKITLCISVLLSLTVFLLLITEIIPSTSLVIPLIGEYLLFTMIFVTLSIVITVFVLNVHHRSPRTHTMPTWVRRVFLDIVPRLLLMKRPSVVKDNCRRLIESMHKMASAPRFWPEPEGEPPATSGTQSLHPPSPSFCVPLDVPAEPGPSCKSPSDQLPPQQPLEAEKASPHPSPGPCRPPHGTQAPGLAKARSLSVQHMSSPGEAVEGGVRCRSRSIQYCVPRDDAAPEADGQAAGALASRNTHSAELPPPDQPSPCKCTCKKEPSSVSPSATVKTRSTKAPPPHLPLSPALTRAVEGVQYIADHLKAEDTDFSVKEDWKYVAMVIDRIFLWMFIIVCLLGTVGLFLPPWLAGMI
T1 sequence (P30926 whole entry): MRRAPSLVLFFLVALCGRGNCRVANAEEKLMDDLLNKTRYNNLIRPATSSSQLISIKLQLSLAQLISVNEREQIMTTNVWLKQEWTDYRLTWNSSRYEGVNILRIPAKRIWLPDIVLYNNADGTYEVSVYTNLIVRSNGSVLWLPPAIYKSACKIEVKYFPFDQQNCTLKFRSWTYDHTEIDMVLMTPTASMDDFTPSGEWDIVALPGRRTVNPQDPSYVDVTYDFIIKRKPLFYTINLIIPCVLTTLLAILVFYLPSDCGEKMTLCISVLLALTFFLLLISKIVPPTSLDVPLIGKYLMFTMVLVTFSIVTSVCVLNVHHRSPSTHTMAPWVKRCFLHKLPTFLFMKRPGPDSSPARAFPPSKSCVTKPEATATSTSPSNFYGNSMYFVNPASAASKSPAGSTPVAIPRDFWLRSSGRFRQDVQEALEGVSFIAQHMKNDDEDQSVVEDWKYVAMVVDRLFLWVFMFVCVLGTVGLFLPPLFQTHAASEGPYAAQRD
T1 sequence (P32297 whole entry): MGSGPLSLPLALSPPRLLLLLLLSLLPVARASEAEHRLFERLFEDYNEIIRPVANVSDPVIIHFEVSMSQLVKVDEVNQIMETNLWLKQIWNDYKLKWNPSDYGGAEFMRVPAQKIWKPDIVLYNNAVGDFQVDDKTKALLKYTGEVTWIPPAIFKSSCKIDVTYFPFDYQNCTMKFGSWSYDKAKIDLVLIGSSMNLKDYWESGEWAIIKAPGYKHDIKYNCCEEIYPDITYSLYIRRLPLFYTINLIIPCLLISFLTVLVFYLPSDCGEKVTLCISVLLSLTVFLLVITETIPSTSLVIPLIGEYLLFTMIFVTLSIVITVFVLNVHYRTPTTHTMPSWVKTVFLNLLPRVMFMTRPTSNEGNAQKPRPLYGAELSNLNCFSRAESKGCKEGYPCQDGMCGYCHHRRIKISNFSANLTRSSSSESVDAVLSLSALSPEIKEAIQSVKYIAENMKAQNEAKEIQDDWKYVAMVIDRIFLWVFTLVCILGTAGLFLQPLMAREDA
Chain of Neuronal acetylcholine receptor subunit alpha-7 (Homo sapiens) (P36544 whole entry): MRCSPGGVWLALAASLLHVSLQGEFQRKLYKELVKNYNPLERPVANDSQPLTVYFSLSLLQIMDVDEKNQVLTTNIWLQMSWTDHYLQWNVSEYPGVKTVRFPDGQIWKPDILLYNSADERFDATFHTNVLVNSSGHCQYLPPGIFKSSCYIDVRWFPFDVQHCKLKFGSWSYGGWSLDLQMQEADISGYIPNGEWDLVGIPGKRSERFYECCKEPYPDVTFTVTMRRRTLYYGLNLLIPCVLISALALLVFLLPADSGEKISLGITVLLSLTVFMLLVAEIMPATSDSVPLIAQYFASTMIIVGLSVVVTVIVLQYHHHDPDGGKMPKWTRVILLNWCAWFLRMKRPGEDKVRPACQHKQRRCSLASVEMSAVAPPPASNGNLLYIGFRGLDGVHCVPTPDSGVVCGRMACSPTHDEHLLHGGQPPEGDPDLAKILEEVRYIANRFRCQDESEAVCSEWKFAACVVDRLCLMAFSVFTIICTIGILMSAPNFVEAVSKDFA

For `Fc1ccc(Nc2ccc(N3CC4CC(C3)N4)nn2)cc1`, the Ratio Ki (Rattus norvegicus) was 128, the Ki [1] was 868 nM and the Ki [2] was 111000 nM.
Work on `c1cc2c(cc1Nc1ccc(N3CC4CC(C3)N4)cn1)OCO2` yielded a Ratio Ki (Rattus norvegicus) of 150, a Ki [1] of 41 nM and a Ki [2] of 6150 nM.
`Cc1ccc(Nc2ccc(N3CC4CC(C3)N4)nn2)cc1` gave a Ratio Ki (Rattus norvegicus) of 490, a Ki [1] of 44.3 nM and a Ki [2] of 21700 nM.
With `c1ccc(Nc2cncc(N3CC4CC(C3)N4)c2)cc1` the Ki [3] was 0.799 nM, the Ratio Ki [4] was 10 and the Ratio Ki (Rattus norvegicus) was 333. The Ki [1] was 0.0807 nM and the Ki [2] was 26.9 nM.
Work on `c1ccc(Nc2ccc(N3CC4CC(C3)N4)cn2)cc1` yielded a Ratio Ki (Rattus norvegicus) of 179, a Ki [1] of 2.66 nM and a Ki [2] of 475 nM.
`Fc1ccc(Nc2ccc(N3CC4CC(C3)N4)cn2)cc1` showed a Ki [3] of 13 nM, a Ratio Ki [4] of 5 and a Ratio Ki (Rattus norvegicus) of 546. The Ki [1] was 2.38 nM and the Ki [2] was 1300 nM.
For `Clc1ccc(Nc2cncc(N3CC4CC(C3)N4)c2)cc1Cl`, the Ratio Ki (Rattus norvegicus) was 1520, the Ki [1] was 1.25 nM and the Ki [2] was 1900 nM.
For `FC(F)(F)c1ccc(Nc2cncc(N3CC4CC(C3)N4)c2)cc1`, the Ki [3] was 1.02 nM, the Ratio Ki [4] was 3 and the Ratio Ki (Rattus norvegicus) was 499. The Ki [1] was 0.373 nM and the Ki [2] was 186 nM.
In the case of `Oc1ccc(Nc2ccc(N3CC4CC(C3)N4)cn2)cc1`, the Ki [3] is reported as 165 nM, the Ratio Ki [4] is reported as 23 and the Ratio Ki (Rattus norvegicus) is reported as 310. For the same compound, the Ki [1] was 7.1 nM and the Ki [2] was 2200 nM.
Work on `Clc1ccc(Nc2ccc(N3CC4CC(C3)N4)nn2)cc1Cl` yielded a Ratio Ki (Rattus norvegicus) of 10, a Ki [1] of 516 nM and a Ki [2] of 5100 nM.
In the case of `O=[N+]([O-])c1ccc(Nc2ccc(N3CC4CC(C3)N4)cn2)cc1`, the Activity [5] is reported as “inactive”, the Ki [3] is reported as 25 nM and the EC50 [6] is reported as over 10000 nM. It also gave an EC50 [7] of over 10000 nM, a Ratio Ki [4] of 14 and a Ratio Ki (Rattus norvegicus) of 2330. It also gave a Ki [1] of 1.76 nM and a Ki [2] of 4100 nM.
For `Clc1ccc(Nc2ccc(N3CC4CC(C3)N4)nn2)cc1`, the Ratio Ki (Rattus norvegicus) was 191, the Ki [1] was 90.4 nM and the Ki [2] was 17300 nM.
`O=[N+]([O-])c1ccc(Nc2ccc(N3CC4CC(C3)N4)nn2)cc1` gave a Ratio Ki (Rattus norvegicus) of 80, a Ki [1] of 86.2 nM and a Ki [2] of 6900 nM.
Compound `FC(F)(F)c1ccc(Nc2ccc(N3CC4CC(C3)N4)nn2)cc1` has a Ki [3] of 115 nM, a Ratio Ki [4] of 17 and a Ratio Ki (Rattus norvegicus) of 294. It also gave a Ki [1] of 6.9 nM and a Ki [2] of 2030 nM.
With `Fc1ccc(Nc2cncc(N3CC4CC(C3)N4)c2)cc1` the Ki [3] was 1.25 nM, the Ratio Ki [4] was 14 and the Ratio Ki (Rattus norvegicus) was 4850. For the same compound, the Ki [1] was 0.091 nM and the Ki [2] was 441 nM.
With `COc1ccc(Nc2ccc(N3CC4CC(C3)N4)cn2)cc1` the Ki [3] was 9.03 nM, the Ratio Ki [4] was 1 and the Ratio Ki (Rattus norvegicus) was 412. It also gave a Ki [1] of 7.3 nM and a Ki [2] of 3010 nM.
For `Clc1cccc(Nc2ccc(N3CC4CC(C3)N4)cn2)c1`, the Ki [3] was 4.8 nM, the Ratio Ki [4] was 2 and the Ratio Ki (Rattus norvegicus) was 1500. For the same compound, the Ki [1] was 2.2 nM and the Ki [2] was 3300 nM.
`Clc1ccc(Nc2cncc(N3CC4CC(C3)N4)c2)cc1` gave a Ki [3] of 1.2 nM, a Ratio Ki [4] of 10 and a Ratio Ki (Rattus norvegicus) of 983. For the same compound, the Ki [1] was 0.118 nM and the Ki [2] was 116 nM.
`Clc1ccc(Nc2ccc(N3CC4CC(C3)N4)cn2)cc1` showed a Ratio Ki (Rattus norvegicus) of 330, a Ki [1] of 2.49 nM and a Ki [2] of 823 nM.
`Clc1ccc(N2CC3CCC(C2)N3)cn1` gave a Ki [8] of 0.95 nM.
Work on `FC(F)(F)c1ccc(Nc2ccc(N3CC4CC(C3)N4)cn2)cc1` yielded a Ki [3] of 0.818 nM, a Ratio Ki [4] of 1 and a Ratio Ki (Rattus norvegicus) of 413. It also gave a Ki [1] of 0.569 nM and a Ki [2] of 235 nM.
Compound `CN(c1ccccc1)c1cncc(N2CC3CC(C2)N3)c1` has a Ratio Ki (Rattus norvegicus) of 154, a Ki [1] of 2.06 nM and a Ki [2] of 317 nM.
In the case of `Cc1ccc(Nc2ccc(N3CC4CC(C3)N4)cn2)cc1`, the Ratio Ki (Rattus norvegicus) is reported as 1700, the Ki [1] is reported as 52.1 nM and the Ki [2] is reported as 88800 nM.
`O=[N+]([O-])c1ccc(Nc2cncc(N3CC4CC(C3)N4)c2)cc1` showed a Ki [3] of 0.684 nM, a Ratio Ki [4] of 30 and a Ratio Ki (Rattus norvegicus) of 10700. The Ki [1] was 0.0225 nM and the Ki [2] was 241 nM.
With `Clc1ccc(N2CC3CCC(C2)N3)nn1` the Ki [8] was 4.1 nM.
With `c1cncc(N2C[C@H]3C[C@@H]2CN3)c1` the Ki [8] was 0.02 nM.
`CN(c1ccccc1)c1ccc(N2CC3CC(C2)N3)nn1` showed a Ratio Ki (Rattus norvegicus) of 71, a Ki [1] of 1430 nM and a Ki [2] of 101000 nM.
Compound `Cc1ccc(Nc2cncc(N3CC4CC(C3)N4)c2)cc1` has a Ki [3] of 1.4 nM, a Ratio Ki [4] of 9 and a Ratio Ki (Rattus norvegicus) of 2030. For the same compound, the Ki [1] was 0.148 nM and the Ki [2] was 300 nM.
`Clc1cccc(Nc2cncc(N3CC4CC(C3)N4)c2)c1` showed a Ki [3] of 293 nM, a Ratio Ki [4] of 2360 and a Ratio Ki (Rattus norvegicus) of 9680. It also gave a Ki [1] of 0.124 nM and a Ki [2] of 1200 nM.
`c1cncc(N2C[C@@H]3C[C@H]2CN3)c1` gave a Ki [8] of 0.15 nM.
`Clc1ccc(N2CC3CC2CN3)cn1` (centres undefined) gave a Ki [8] of 0.018 nM.
`COc1ccc(Nc2ccc(N3CC4CC(C3)N4)nn2)cc1` gave a Ratio Ki (Rattus norvegicus) of 87, a Ki [1] of 578 nM and a Ki [2] of 50200 nM.
Work on `Clc1cccc(Nc2ccc(N3CC4CC(C3)N4)nn2)c1` yielded a Ratio Ki (Rattus norvegicus) of 27, a Ki [1] of 1540 nM and a Ki [2] of 41800 nM.
For `Clc1ccc(Nc2ccc(N3CC4CC(C3)N4)cn2)cc1Cl`, the Ki [3] was 40.9 nM, the Ratio Ki [4] was 18 and the Ratio Ki (Rattus norvegicus) was 887. For the same compound, the Ki [1] was 2.3 nM and the Ki [2] was 2040 nM.
With `c1cncc(N2CC3CCC(C2)N3)c1` the Ki [8] was 0.4 nM.
Compound `c1ccc(Nc2ccc(N3CC4CC(C3)N4)nn2)cc1` has a Ratio Ki (Rattus norvegicus) of 24, a Ki [1] of 441 nM and a Ki [2] of 10400 nM.
`Oc1ccc(Nc2cncc(N3CC4CC(C3)N4)c2)cc1` gave a Ki [3] of 0.988 nM, a Ratio Ki [4] of 3 and a Ratio Ki (Rattus norvegicus) of 6140. The Ki [1] was 0.342 nM and the Ki [2] was 2100 nM.
For `COc1ccc(Nc2cncc(N3CC4CC(C3)N4)c2)cc1`, the Activity [5] was “inactive”, the Ki [3] was 2.2 nM and the EC50 [6] was 1900 nM. It also gave an EC50 [7] of 2900 nM, a Ratio Ki [4] of 37 and a Ratio Ki (Rattus norvegicus) of 14000. For the same compound, the Ki [1] was 0.0598 nM, the Ki [2] was 837 nM and the Emax [9] was 11%. For the same compound, the Emax [10] was 42.3%.
